From article PMC11367503, “Exploring galectin interactions with human milk oligosaccharides and blood group antigens identifies BGA6 as a functional galectin-4 ligand” (The Journal of Biological Chemistry, 2024)
Where “and” joins values, the source holds several entries; their conditions need not be identical. Equal values may be shown once.

T1: human Gal-4 (Homo sapiens, UniProt P56470)
T1 construct: His6-SUMO (N, cleaved yes); made in house; host or cells: Escherichia coli BL21 (DE3)
T1 sequence (P56470 1-323): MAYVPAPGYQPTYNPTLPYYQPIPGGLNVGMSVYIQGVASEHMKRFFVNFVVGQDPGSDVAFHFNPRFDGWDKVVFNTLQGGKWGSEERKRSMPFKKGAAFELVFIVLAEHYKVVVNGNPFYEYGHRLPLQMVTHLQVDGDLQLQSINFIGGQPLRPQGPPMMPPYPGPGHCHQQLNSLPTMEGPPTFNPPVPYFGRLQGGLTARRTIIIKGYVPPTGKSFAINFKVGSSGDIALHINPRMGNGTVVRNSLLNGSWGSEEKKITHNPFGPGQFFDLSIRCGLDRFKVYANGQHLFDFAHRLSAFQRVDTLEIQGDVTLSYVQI

T2: human Gal-12 (Homo sapiens, UniProt Q96DT0)
T2 construct: To obtain full-length human Gal-12, we adapted our previously optimized procedure for murine Gal-12; made in house; host or cells: Escherichia coli Rosetta 2 (DE3)
T2 sequence (Q96DT0 1-336): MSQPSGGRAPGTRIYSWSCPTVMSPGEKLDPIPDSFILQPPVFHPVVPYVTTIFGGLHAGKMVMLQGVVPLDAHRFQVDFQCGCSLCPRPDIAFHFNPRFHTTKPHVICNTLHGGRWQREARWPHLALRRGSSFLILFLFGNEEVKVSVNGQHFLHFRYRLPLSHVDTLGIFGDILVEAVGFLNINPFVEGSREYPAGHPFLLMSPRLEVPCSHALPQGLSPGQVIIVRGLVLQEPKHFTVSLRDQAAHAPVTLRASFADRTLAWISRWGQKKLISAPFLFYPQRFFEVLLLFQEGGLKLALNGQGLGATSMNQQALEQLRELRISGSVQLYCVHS


Legend:
[1] = target: T1, human Gal-4; assay: Inhibition of Gal-4-driven IL-6 secretion by activated PBMCs (IL-6 ELISA); format: cell-based; details: Gal-4 50 or 100 μg/ml; BGA6 0.5, 1, 2.5 and 5 mM; 72 h; anti-CD3/CD28 activated PBMCs
Description: (§1) PBMCs were isolated from anonymous healthy volunteer buffy coats (Fundación Hemocentro Blood Bank, Buenos Aires, Argentina), using Ficoll-Hypaque density gradient (Lymphoprep). The samples were then centrifuged at 1500 rpm for 25 min, and the interface corresponding to mononuclear cells was carefully removed and diluted with PBS supplemented with 2% fetal bovine serum. To reduce platelet contamination, three washing steps with PBS 2% fetal bovine serum were performed, and freshly isolated PBMCs were subsequently resuspended in complete RPMI medium. To obtain a bead to T-cell ratio of 1:1, approximately 16 × 10^4 PBMCs were activated with 2 μl of Dynabeads Human T-Activator CD3/CD28 (Gibco). After 24 h stimulation at 37 °C and 5% CO2, cells were incubated with human recombinant Gal-4 (25, 50, or 100 μg/ml) in the absence or presence of BGA6 (0.5, 1, 2.5, and 5 mM) for an additional time period of 72 h.
(§2) Human IL-6 was determined in supernatants from activated PBMCs exposed or not to Gal-4 in the absence or presence of BGA6 using specific ELISA kits (BD Biosciences), according to the manufacturer's instructions. Briefly, 96-well plates (Costar) were coated with capture antibody during 18 h at 4 °C. […] Reaction was stopped with 2N H2SO4, and the absorbance was measured at 450 nm using a plate spectrophotometer (Multiskan).

[2] = target: T3, human Gal-7 (Homo sapiens, UniProt P47929); assay: Competitive solid-phase assay (SPA), immobilized asialofetuin, Gal-7; format: binding; details: competitive SPA, immobilized asialofetuin; mean ± S.D., three independent experiments
T3 construct: made in house; host or cells: Escherichia coli BL21 (DE3)
T3 sequence (P47929 whole entry): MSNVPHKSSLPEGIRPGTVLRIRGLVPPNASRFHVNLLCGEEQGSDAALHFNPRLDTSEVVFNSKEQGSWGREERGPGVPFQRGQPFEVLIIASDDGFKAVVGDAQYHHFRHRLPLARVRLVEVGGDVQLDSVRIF
Description: (§3) The assay was adapted from Rapoport et al. (2010) ([88]). Briefly, 96-well plates (flat-bottom) were coated with 10 μg/ml asialofetuin (ASF, Sigma-Aldrich) in sodium carbonate buffer (pH 9.6) and incubated overnight at 4 °C. Then, wells were washed three times with 100 μl/well PBS-Tween 0.05% (w/v) and blocked with 100 μl/well PBS-bovine serum albumin (BSA) 2% (1 h, room temperature (RT)) in a humid chamber. Meanwhile, equal volumes of human recombinant Gal-1, -3, -4, -7, and -12 (20–40 μg/ml) in PBS-BSA 0.3% buffer were preincubated with the corresponding inhibitors in serial dilutions (2 h, 37 °C). After washing, galectins were detected using the corresponding antigalectin primary detection antibodies in PBS-BSA 0.3% w/v (1 h at RT). For Gal-1, wells were incubated with an in-house purified 100 ng/ml biotinylated rabbit anti–human Gal-1 polyclonal immunoglobulin G. For Gal-3, -4, and -7, a 1:500 dilution of the corresponding biotinylated anti-human galectin antibodies was used (BAF1154, BAF1227, and MAB13391, respectively, R&D Systems). For Gal-12, a rabbit anti-human Gal-12 polyclonal antibody (Santa Cruz Biotechnology, 1:700) was used. For Gal-1, -3, -4, and -7, plates were rinsed three times before adding 0.33 μg/ml horseradish peroxidase (HRP)-labeled streptavidin (Sigma-Aldrich) for 30 min. For Gal-12, an anti-rabbit secondary antibody conjugate coupled to HRP was incubated for 1 h at RT in PBS-BSA 0.3% w/v. After washing, 100 μl TMB solution (0.1 mg/ml tetramethylbenzidine and 0.06% H2O2 in citrate-phosphate buffer, pH 5.0) was added to plates. The reaction was stopped by adding a 2N H2SO4 solution. Absorbance was determined at 450 nm in a Multiskan MS microplate reader (Thermo Fisher Scientific).

[3] = target: T4, human Gal-1 (Homo sapiens, UniProt P09382); assay: Competitive solid-phase assay (SPA), immobilized asialofetuin, Gal-1; format: binding; details: mean ± S.D., three independent experiments
T4 construct: made in house; host or cells: Escherichia coli BL21 (DE3)
T4 sequence (P09382 whole entry): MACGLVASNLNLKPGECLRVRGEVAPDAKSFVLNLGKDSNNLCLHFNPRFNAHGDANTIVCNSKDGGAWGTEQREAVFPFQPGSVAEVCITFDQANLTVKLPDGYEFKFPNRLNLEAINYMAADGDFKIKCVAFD
Description: as §3

[4] = target: T5, human Gal-3 (Homo sapiens, UniProt P17931); assay: Competitive solid-phase assay (SPA), immobilized asialofetuin, Gal-3; format: binding; details: mean ± S.D., three independent experiments
T5 construct: made in house; host or cells: Escherichia coli BL21 (DE3)
T5 sequence (P17931 whole entry): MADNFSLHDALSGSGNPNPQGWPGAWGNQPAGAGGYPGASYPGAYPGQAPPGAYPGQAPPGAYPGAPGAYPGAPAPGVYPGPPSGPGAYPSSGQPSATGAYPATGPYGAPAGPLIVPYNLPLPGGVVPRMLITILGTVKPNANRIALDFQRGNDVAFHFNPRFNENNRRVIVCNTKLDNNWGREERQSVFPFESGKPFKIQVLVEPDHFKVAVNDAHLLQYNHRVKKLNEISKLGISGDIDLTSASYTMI
Description: as §3

[5] = target: T1, human Gal-4; assay: Competitive solid-phase assay (SPA), immobilized asialofetuin, Gal-4; format: binding; details: mean ± S.D., three independent experiments
Description: as §3

[6] = target: T2, human Gal-12; assay: Competitive solid-phase assay (SPA), immobilized asialofetuin, Gal-12; format: binding; details: mean ± S.D., three independent experiments
Description: as §3

[7] = target: T1, human Gal-4; assay: Isothermal titration calorimetry (ITC), Gal-4; format: binding; details: Gal-4, PBS, 298 K
Description: All ITC experiments were performed by using a NanoITC (TA Instruments) under previously optimized conditions ([89]). A typical titration involved 20 injections at 300 s intervals of 2.5 μl aliquots of a 2.5 to 10 mM ligand solution into the sample cell (volume 200 μl) containing the different galectins (30–100 μM). The solutions were prepared by dissolving the glycan ligands in degassed PBS buffer at 298 K. The titration cell was continuously stirred at 300 rev/min. The heats of dilution of the ligands in the buffer were subtracted from the titration data. […] Fitting was performed using the Nano Analyze software (TA Instruments; https://www.tainstruments.com/itcrun-dscrun-nanoanalyze-software/) to determine association constants (Ka) and the enthalpy change (ΔH). No reliable fit of the thermodynamic parameters could be obtained for binding affinities above 80 μM.

[8] = target: Gal-1; set-up: method as in PMID 15476813; details: at 298 K; read-out: dissociation constant reported for Gal-1/LacNAc interactions; cited from earlier work
[9] = tested on: human PBMCs; assay: IL-6 secretion by anti-CD3/CD28-activated PBMCs cultured with Gal-4 (IL-6 ELISA); format: cell-based; details: Gal-4 25, 50 or 100 μg/ml, 72 h
Description: as §1, §2

Molecule	Gal-4-driven IL-6 secretion by human activated PBMCs in presence of BGA6 [1]	IC50 [2]	IC50 [3]	IC50 [4] [µM]	IC50 [5] [µM]	IC50 [6] [µM]	-TΔS [7] [kcal/mol]	ΔH [7] [kcal/mol]	Kd ([7]; n fixed to 1.00) [µM]	Kd [8] [µM]	secretion of IL-6 by human-activated T lymphocytes in PBMCs [9]
CC(=O)NC1C(OC2C(O)C(CO)OC(OC3C(CO)OC(O)C(O)C3O)C2OC2OC(C)C(O)C(O)C2O)OC(CO)C(O)C1O (stereo not shown) [BGA6, blood group A antigen tetraose 6]	effectively suppressed	5400 ± 700 µM	5000 µM and 5020 µM	1500 ± 300	200 ± 100	27100 ± 1000	1.77 ± 0.14	-7.65 ± 0.72	51 ± 3	–	–
CC(=O)NC1C(O)OC(CO)C(OC2OC(CO)C(O)C(O)C2O)C1O (stereo not shown) [LacNAc, N-acetyllactosamine]	–	2500 µM and 2490 µM	1300 ± 100 µM	2000 ± 200	25800	36000 ± 900	–	–	–	76	–
Gal-4: recombinant full-length human galectin-4, tandem-repeat type lectin expressed in E. coli (protein, left off: His6, N-terminal, cleaved | SUMO, N-terminal, cleaved, recombinant full-length human galectin-4, tandem-repeat type lectin expressed in E. coli) MAYVPAPGYQPTYNPTLPYYQPIPGGLNVGMSVYIQGVASEHMKRFFVNFVVGQDPGSDVAFHFNPRFDGWDKVVFNTLQGGKWGSEERKRSMPFKKGAAFELVFIVLAEHYKVVVNGNPFYEYGHRLPLQMVTHLQVDGDLQLQSINFIGGQPLRPQGPPMMPPYPGPGHCHQQLNSLPTMEGPPTFNPPVPYFGRLQGGLTARRTIIIKGYVPPTGKSFAINFKVGSSGDIALHINPRMGNGTVVRNSLLNGSWGSEEKKITHNPFGPGQFFDLSIRCGLDRFKVYANGQHLFDFAHRLSAFQRVDTLEIQGDVTLSYVQI	–	–	–	–	–	–	–	–	–	–	significant and dose-dependent increase
